The target in experiment [1] is T1, bovine serum albumin (BSA) (Bos taurus, UniProt P02769).
T1 construct: gene ALB
As to the kind of experiment: imaging STD NMR, initial slopes (STD-AF0), Langmuir fit. In kind it is binding.

The target in experiment [2] is T2, wheat germ agglutinin (WGA).
T2 construct: gene WGA1
The experiment is described as above. The format is binding, Triticum aestivum.

In publication PMC10401705, “Imaging Saturation Transfer Difference (STD) NMR: Affinity and Specificity of Protein–Ligand Interactions from a Single NMR Sample” (Journal of the American Chemical Society, 2023) one finds Kd data, which are given here for two compounds.

The Kd is the concentration at which binding is half-saturated.

T1 sequence (P02769 25-607): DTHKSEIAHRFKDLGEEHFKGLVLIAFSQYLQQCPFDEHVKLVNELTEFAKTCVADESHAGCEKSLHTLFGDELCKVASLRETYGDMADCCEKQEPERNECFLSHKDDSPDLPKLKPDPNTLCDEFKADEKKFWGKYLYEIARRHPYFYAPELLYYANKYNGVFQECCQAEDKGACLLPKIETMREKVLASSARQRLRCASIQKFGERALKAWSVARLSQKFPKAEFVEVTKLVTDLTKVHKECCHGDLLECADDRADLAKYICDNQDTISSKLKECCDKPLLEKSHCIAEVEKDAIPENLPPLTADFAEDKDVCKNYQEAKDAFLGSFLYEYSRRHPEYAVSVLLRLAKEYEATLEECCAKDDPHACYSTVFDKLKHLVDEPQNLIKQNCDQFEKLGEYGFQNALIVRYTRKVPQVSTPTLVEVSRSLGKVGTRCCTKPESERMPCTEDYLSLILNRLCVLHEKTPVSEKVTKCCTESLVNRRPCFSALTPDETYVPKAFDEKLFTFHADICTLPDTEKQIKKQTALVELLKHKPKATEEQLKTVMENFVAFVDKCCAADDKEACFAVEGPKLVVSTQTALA

`N[C@@H](Cc1c[nH]c2ccccc12)C(=O)O` [tryptophan]: the Kd in experiment [1] was 231 ± 50 µM.
Take `CC(=O)N[C@H]1C(O)O[C@H](CO)[C@@H](O)[C@@H]1O` (some centres unmarked) [GlcNAc]: binding in experiment [2] was characterised by a dissociation constant (Kd) of 2.24 ± 0.18 mM.
